# From patent publication US20230085307A1, “PYRIDAZINONE COMPOUND AND HERBICIDE” (NISSAN CHEMICAL CORPORATION, priority 2019, published 2023)
# Assays:
# barnyard grass [1] = experiment: Test Example 3: herbicidal effect by foliage application, Wagner pot (Table 18, symbol H); format: in vivo, barnyard grass (Echinochloa crus-galli); conditions: 320 g/ha
# Outline: (§1)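 Plants were sown in alluvial soil held under 0.1–0.5 cm standing water and grown 14 days in a greenhouse at 25–30 °C. An emulsifiable formulation, water-diluted to the set dose, was then sprayed onto the foliage, and effects were scored three weeks later using previously defined criteria.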
# Chinese sprangletop = experiment: Test Example 3: herbicidal effect by foliage application, Wagner pot (Table 18, symbol D); format: in vivo, chinese sprangletop (Leptochloa chinensis); conditions: 320 g/ha
# Outline: as §1
# rice flat sedge = experiment: Test Example 3: herbicidal effect by foliage application, Wagner pot (Table 18, symbol E); format: in vivo, rice flat sedge (Cyperus iria); conditions: 320 g/ha
# Outline: as §1
# southern crabgrass [2] = experiment: Test Example 4: herbicidal effect by soil treatment (Table 19, symbol F); format: in vivo, southern crabgrass (Digitaria ciliaris); conditions: AAH 320 g/ha
# Outline: (§2)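 Step 1: sow seeds in sterilized diluvial soil, cover ~1.5 cm. Step 2: spray diluted emulsion onto soil surface at predetermined rate. Step 3: greenhouse, 25–30° C, three weeks. Step 4: grade effect on each plant by earlier criteria.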
# green foxtail [3] = experiment: Test Example 4: herbicidal effect by soil treatment (Table 19, symbol G); format: in vivo, green foxtail (Setaria viridis); conditions: AAH 320 g/ha
# Outline: as §2
# barnyard grass [4] = experiment: Test Example 4: herbicidal effect by soil treatment (Table 19, symbol H); format: in vivo, barnyard grass (Echinochloa crus-galli); conditions: AAH 320 g/ha
# Outline: as §2
# wild oat [5] = experiment: Test Example 4: herbicidal effect by soil treatment (Table 19, symbol I); format: in vivo, wild oat (Avena fatua); conditions: AAH 320 g/ha
# Outline: as §2
# blackgrass [6] = experiment: Test Example 4: herbicidal effect by soil treatment (Table 19, symbol J); format: in vivo, blackgrass (Alopecurus myosuroides); conditions: AAH 320 g/ha
# Outline: as §2
# Italian ryegrass [7] = experiment: Test Example 4: herbicidal effect by soil treatment (Table 19, symbol K); format: in vivo, Italian ryegrass (Lolium multiflorum); conditions: AAH 320 g/ha
# Outline: as §2
# windgrass [8] = experiment: Test Example 4: herbicidal effect by soil treatment (Table 19, symbol L); format: in vivo, windgrass (Apera spica-venti); conditions: AAH 320 g/ha
# Outline: as §2
# velvetleaf [9] = experiment: Test Example 4: herbicidal effect by soil treatment (Table 19, symbol M); format: in vivo, velvetleaf (Abutilon theophrasti); conditions: AAH 320 g/ha
# Outline: as §2
# redroot pigweed [10] = experiment: Test Example 4: herbicidal effect by soil treatment (Table 19, symbol N); format: in vivo, redroot pigweed (Amaranthus retroflexus); conditions: AAH 320 g/ha
# Outline: as §2
# lambsquarters [11] = experiment: Test Example 4: herbicidal effect by soil treatment (Table 19, symbol O); format: in vivo, lambsquarters (Chenopodium album); conditions: AAH 320 g/ha
# Outline: as §2
# chickweed [12] = experiment: Test Example 4: herbicidal effect by soil treatment (Table 19, symbol P); format: in vivo, common chickweed (Stellaria media); conditions: AAH 320 g/ha
# Outline: as §2
# persian speedwell [13] = experiment: Test Example 4: herbicidal effect by soil treatment (Table 19, symbol R); format: in vivo, Persian speedwell (Veronica persica); conditions: AAH 320 g/ha
# Outline: as §2
# southern crabgrass [14] = experiment: Test Example 5: herbicidal effect by foliage application, plastic box (Table 20, symbol F); format: in vivo, southern crabgrass (Digitaria ciliaris); conditions: foliage application, AAH 320 g/ha, three weeks after application
# Outline: (§3)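 Foliar spray test: emulsion formulation diluted in water to a set application rate, sprayed onto 14-day-old plants raised in diluvial soil at 25° C to 30° C under glass. Both herbicidal effect and crop effect rated visually three weeks later.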
# green foxtail [15] = experiment: Test Example 5: herbicidal effect by foliage application, plastic box (Table 20, symbol G); format: in vivo, green foxtail (Setaria viridis); conditions: foliage application, AAH 320 g/ha, three weeks after application
# Outline: as §3
# barnyard grass [16] = experiment: Test Example 5: herbicidal effect by foliage application, plastic box (Table 20, symbol H); format: in vivo, barnyard grass (Echinochloa crus-galli); conditions: foliage application, AAH 320 g/ha, three weeks after application
# Outline: as §3
# wild oat [17] = experiment: Test Example 5: herbicidal effect by foliage application, plastic box (Table 20, symbol I); format: in vivo, wild oat (Avena fatua); conditions: foliage application, AAH 320 g/ha, three weeks after application
# Outline: as §3
# blackgrass [18] = experiment: Test Example 5: herbicidal effect by foliage application, plastic box (Table 20, symbol J); format: in vivo, blackgrass (Alopecurus myosuroides); conditions: foliage application, AAH 320 g/ha, three weeks after application
# Outline: as §3
# Italian ryegrass [19] = experiment: Test Example 5: herbicidal effect by foliage application, plastic box (Table 20, symbol K); format: in vivo, Italian ryegrass (Lolium multiflorum); conditions: foliage application, AAH 320 g/ha, three weeks after application
# Outline: as §3
# windgrass [20] = experiment: Test Example 5: herbicidal effect by foliage application, plastic box (Table 20, symbol L); format: in vivo, windgrass (Apera spica-venti); conditions: foliage application, AAH 320 g/ha, three weeks after application
# Outline: as §3
# velvetleaf [21] = experiment: Test Example 5: herbicidal effect by foliage application, plastic box (Table 20, symbol M); format: in vivo, velvetleaf (Abutilon theophrasti); conditions: foliage application, AAH 320 g/ha, three weeks after application
# Outline: as §3
# redroot pigweed [22] = experiment: Test Example 5: herbicidal effect by foliage application, plastic box (Table 20, symbol N); format: in vivo, redroot pigweed (Amaranthus retroflexus); conditions: foliage application, AAH 320 g/ha, three weeks after application
# Outline: as §3
# lambsquarters [23] = experiment: Test Example 5: herbicidal effect by foliage application, plastic box (Table 20, symbol O); format: in vivo, lambsquarters (Chenopodium album); conditions: foliage application, AAH 320 g/ha, three weeks after application
# Outline: as §3
# chickweed [24] = experiment: Test Example 5: herbicidal effect by foliage application, plastic box (Table 20, symbol P); format: in vivo, common chickweed (Stellaria media); conditions: foliage application, AAH 320 g/ha, three weeks after application
# Outline: as §3
# persian speedwell [25] = experiment: Test Example 5: herbicidal effect by foliage application, plastic box (Table 20, symbol R); format: in vivo, Persian speedwell (Veronica persica); conditions: foliage application, AAH 320 g/ha, three weeks after application
# Outline: as §3
compound,measurement,setting,value
Cc1nn(C)c(=O)c(-c2c(-c3ccc(OCC#N)cc3)sc3ccccc23)c1O [1-137],"herbicidal effect on H (barnyard grass), rating 0-5",barnyard grass [1],3 (Herbicidal rate of 40% or more and less than 70%)
same,"herbicidal effect on D (Chinese sprangletop), rating 0-5",Chinese sprangletop,3 (Herbicidal rate of 40% or more and less than 70%)
same,"herbicidal effect on E (rice flat sedge), rating 0-5",rice flat sedge,5 (Herbicidal rate of 90% or more (almost completely withered))
same,"F: southern crabgrass, herbicidal effect rating",southern crabgrass [2],0 (Herbicidal rate of 5% or less (almost no effect))
same,"G: green foxtail, herbicidal effect rating",green foxtail [3],2 (Herbicidal rate of 20% or more and less than 40%)
same,"H: barnyard grass, herbicidal effect rating",barnyard grass [4],0 (Herbicidal rate of 5% or less (almost no effect))
same,"I: wild oat, herbicidal effect rating",wild oat [5],0 (Herbicidal rate of 5% or less (almost no effect))
same,"J: blackgrass, herbicidal effect rating",blackgrass [6],0 (Herbicidal rate of 5% or less (almost no effect))
same,"K: Italian ryegrass, herbicidal effect rating",Italian ryegrass [7],0 (Herbicidal rate of 5% or less (almost no effect))
same,"L: windgrass, herbicidal effect rating",windgrass [8],0 (Herbicidal rate of 5% or less (almost no effect))
same,"M: velvetleaf, herbicidal effect rating",velvetleaf [9],0 (Herbicidal rate of 5% or less (almost no effect))
same,"N: redroot pigweed, herbicidal effect rating",redroot pigweed [10],3 (Herbicidal rate of 40% or more and less than 70%)
same,"O: lambsquarters, herbicidal effect rating",lambsquarters [11],2 (Herbicidal rate of 20% or more and less than 40%)
same,"P: chickweed, herbicidal effect rating",chickweed [12],0 (Herbicidal rate of 5% or less (almost no effect))
same,"R: persian speedwell, herbicidal effect rating",persian speedwell [13],3 (Herbicidal rate of 40% or more and less than 70%)
same,"F: southern crabgrass, herbicidal effect",southern crabgrass [14],0 (Herbicidal rate of 5% or less (almost no effect))
same,"G: green foxtail, herbicidal effect",green foxtail [15],0 (Herbicidal rate of 5% or less (almost no effect))
same,"H: barnyard grass, herbicidal effect",barnyard grass [16],1 (Herbicidal rate of 5% or more and less than 20%)
same,"I: wild oat, herbicidal effect",wild oat [17],0 (Herbicidal rate of 5% or less (almost no effect))
same,"J: blackgrass, herbicidal effect",blackgrass [18],0 (Herbicidal rate of 5% or less (almost no effect))
same,"K: Italian ryegrass, herbicidal effect",Italian ryegrass [19],0 (Herbicidal rate of 5% or less (almost no effect))
same,"L: windgrass, herbicidal effect",windgrass [20],0 (Herbicidal rate of 5% or less (almost no effect))
same,"M: velvetleaf, herbicidal effect",velvetleaf [21],3 (Herbicidal rate of 40% or more and less than 70%)
same,"N: redroot pigweed, herbicidal effect",redroot pigweed [22],0 (Herbicidal rate of 5% or less (almost no effect))
same,"O: lambsquarters, herbicidal effect",lambsquarters [23],3 (Herbicidal rate of 40% or more and less than 70%)
same,"P: chickweed, herbicidal effect",chickweed [24],3 (Herbicidal rate of 40% or more and less than 70%)
same,"R: persian speedwell, herbicidal effect",persian speedwell [25],4 (Herbicidal rate of 70% or more and less than 90%)
